From publication PMC4982760, “Small-molecule inhibitors identify the RAD52-ssDNA interaction as critical for recovery from replication stress and for survival of BRCA2 deficient cells” (eLife, 2016)

Experiments:
RAD52-dsDNA interaction = target: T1, RAD52-dsDNA interaction (Homo sapiens, UniProt P43351); test: FRET-based RAD52-dsDNA binding assay; conditions: 1 nM dsDNA, 10 nM RAD52
T1 construct: made in house
T1 sequence (P43351 1-418): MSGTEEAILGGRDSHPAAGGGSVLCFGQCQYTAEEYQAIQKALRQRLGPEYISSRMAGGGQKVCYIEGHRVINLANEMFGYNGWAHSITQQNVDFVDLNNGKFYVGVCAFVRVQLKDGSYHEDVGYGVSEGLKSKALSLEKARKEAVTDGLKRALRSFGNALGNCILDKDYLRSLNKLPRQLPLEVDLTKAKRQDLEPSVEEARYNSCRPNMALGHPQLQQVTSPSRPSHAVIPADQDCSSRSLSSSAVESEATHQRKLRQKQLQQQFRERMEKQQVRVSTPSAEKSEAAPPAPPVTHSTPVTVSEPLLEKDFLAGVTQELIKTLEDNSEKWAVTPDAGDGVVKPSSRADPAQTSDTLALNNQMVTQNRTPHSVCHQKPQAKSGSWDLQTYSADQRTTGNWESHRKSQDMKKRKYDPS

RPA-ssDNA interaction = target: T2, RPA-ssDNA interaction (Homo sapiens, UniProt P15927+P27694+P35244); test: FRET titration of the RPA-Cy3-dT30-Cy5 complex; type: binding; conditions: range of tested concentrations
T2 construct: made in house
Excerpt: In the cell, ssDNA is typically found in complex with Replication protein A (RPA), the major eukaryotic ssDNA-binding protein essential for DNA replication, repair and recombination ([Wold, 1997]; [Oakley and Patrick, 2010]; [Chen and Wold, 2014]). The RPA-ssDNA complex is a physiologically relevant substrate for the RAD52-mediated strand annealing. […] RPA binds ssDNA with high affinity and extends the ssDNA to its contour length. In our assays such an extension manifests as a distinct FRET state of ~0.3, which is readily distinguished from a FRET state of ~0.48 of free Cy3-dT30-Cy5 ssDNA, as well as ~0.63 FRET of the stoichiometric ssDNA-RPA-RAD52 complex (see Figure 2—figure supplement 1 and ([Grimme and Spies, 2011]) for details). […] Both, however, inhibited the RAD52 binding to and wrapping of RPA-coated ssDNA with IC50 values identical to those determined without RPA (Figure 2e and Figure 3e).
In all experiments, the FRET values for each data point were corrected for the effects of the compounds on the respective substrate in the absence of RAD52.

[1] = test system: GM01604 cells (hTERT-immortalized wild-type human fibroblasts); test: Neutral comet assay, MUS81/EME1/RAD52-dependent DSB formation; type: cell-based; conditions: GM01604, HU + UCN01
Excerpt: In human cells, RAD52 may perform both limited recombination-mediator function in the RAD51-dependent pathway ([Lok and Powell, 2012]; [Benson et al., 1998]; [Feng et al., 2011]) as well as additional RAD51-independent roles ([Lok and Powell, 2012]; [Murfuni et al., 2013]; [McIlwraith and West, 2008]). One of these HR independent roles of RAD52 involves stimulation of MUS81/EME1-dependent DSB formation at replication forks stalled by hydroxyurea (HU) treatment in the absence of cellular checkpoints ([Murfuni et al., 2013]). Since the most likely targets of these MUS81/EME1/RAD52-dependent DSBs are the DNA structures produced by RAD52 ([Murfuni et al., 2013]), we expected this activity to depend on the RAD52-ssDNA interaction (Figure 5a). To confirm this, we assessed DSB formation in checkpoint deficient cells using the neutral comet assay. These assays monitor MUS81/EME1/RAD52-dependent DSB formation upon induction of replication stress by HU treatment in primary fibroblasts immortalized by hTERT expression and treated with UNC01 to inhibit CHK1 kinase (Figure 5b). […] Importantly, these inhibitors recapitulate RAD52 depletion by inhibiting RAD52-MUS81-dependent DSBs at stalled replication forks (Figure 5a–b). […] It also confirms our previous supposition that the target of MUS81/EME1-mediated cleavage under these conditions are indeed the structures annealed by RAD52. […]
To induce RAD52-MUS81-dependent cleavage at arrested replication forks ([Murfuni et al., 2013]), hTERT-immortalized wild-type human fibroblasts (GM01604) were treated with 2 mM HU and 300 nM UCN01 for 6h, in the presence and absence of varying concentrations of ‘1’ or ‘6’. […] Slides were analyzed by a computerized image analysis system (Comet IV, Perceptive UK). To assess the quantity of DNA damage, computer-generated tail moment values (tail length x fraction of total DNA in the tail) were used. […] A minimum of 100 cells were analyzed for each compound concentration point.

GM01604 cells = test: LIVE/DEAD cell viability assay; type: cell-based, human; conditions: 1 µM compound
Description: GM01604 cells were transfected with siRNAs directed against GFP (Ctrl), or against MUS81 (Qiagen), BRCA2 (Sigma-Aldrich), and RAD52 (Qiagen) 48 hr prior to addition of 1 µM ‘1’. Where indicated, the conditions of pathological replication were induced by treating cells with 2 mM HU and 300 nM UCN01 for 6 hr or by 18 hr treatment with 2 mM HU, in the presence or absence of ‘1’. Viability was evaluated by the LIVE/DEAD assay (Sigma-Aldrich) according to the manufacturer’s instructions. Cell number was counted in randomly chosen fields and expressed as percent of dead cells (number of red nuclear stained cells divided by the total cell number) corrected for the cell loss observed in the population. For each time point, at least 200 cells were counted.

T2 sequence (P27694 whole entry): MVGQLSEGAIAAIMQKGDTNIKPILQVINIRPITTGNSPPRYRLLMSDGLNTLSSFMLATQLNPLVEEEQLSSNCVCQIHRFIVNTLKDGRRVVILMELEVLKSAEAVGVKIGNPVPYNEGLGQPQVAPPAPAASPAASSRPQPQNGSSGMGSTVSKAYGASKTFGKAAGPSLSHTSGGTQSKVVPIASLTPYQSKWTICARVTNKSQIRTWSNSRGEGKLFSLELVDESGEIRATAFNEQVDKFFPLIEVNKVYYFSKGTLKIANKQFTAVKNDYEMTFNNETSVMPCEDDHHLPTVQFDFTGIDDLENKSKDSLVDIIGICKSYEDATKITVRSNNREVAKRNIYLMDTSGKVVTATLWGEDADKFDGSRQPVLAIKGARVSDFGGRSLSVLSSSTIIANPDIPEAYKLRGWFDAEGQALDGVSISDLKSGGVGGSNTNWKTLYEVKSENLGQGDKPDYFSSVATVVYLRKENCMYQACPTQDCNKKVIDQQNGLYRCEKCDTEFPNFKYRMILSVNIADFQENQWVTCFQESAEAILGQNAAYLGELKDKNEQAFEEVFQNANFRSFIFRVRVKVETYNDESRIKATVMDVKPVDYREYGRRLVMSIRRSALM
T2 sequence (P15927 whole entry): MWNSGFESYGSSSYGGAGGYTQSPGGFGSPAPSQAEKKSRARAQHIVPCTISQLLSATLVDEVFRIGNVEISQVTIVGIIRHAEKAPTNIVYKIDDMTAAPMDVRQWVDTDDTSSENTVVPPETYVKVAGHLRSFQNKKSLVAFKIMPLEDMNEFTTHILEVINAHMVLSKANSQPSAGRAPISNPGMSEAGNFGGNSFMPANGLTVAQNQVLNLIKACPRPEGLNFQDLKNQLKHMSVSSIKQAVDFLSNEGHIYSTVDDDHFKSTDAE
T2 sequence (P35244 whole entry): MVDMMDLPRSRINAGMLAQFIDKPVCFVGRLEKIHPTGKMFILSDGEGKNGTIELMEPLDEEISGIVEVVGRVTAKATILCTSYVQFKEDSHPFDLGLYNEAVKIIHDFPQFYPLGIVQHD

SMILES: Oc1cc(O)c2c(c1)O[C@H](c1cc(O)c(O)c(O)c1)[C@H](O)C2 [Compound 1, (−)−Epigallocatechin]
- effect on the RAD52-dsDNA interaction (RAD52-dsDNA interaction): had no effect on the RAD52-dsDNA interaction
- effect on the RPA-ssDNA interaction (RPA-ssDNA interaction): neither ‘1’ nor ‘6’ affected the RPA-ssDNA interaction
- concentration sufficient for same level of DSB reduction as siRNA treatment [1]: 1 µM
- concentration with same reduction in DSBs as siRNA depletion of RAD52 [1]: 500 nM
- cell death (GM01604 cells; BRCA2-depleted GM01604, after replication stress (HU + UCN01)): ~ 80%
- dead cells (GM01604 cells; MUS81-depleted GM01604, checkpoint-deficient, HU treated): ~60%
- dead cells (GM01604 cells; MUS81-depleted GM01604, untreated): approximately 40%
